Reference: patent publication US7851474B2, “Dipiperazinyl ketones and related analogues” (Neurogen Corporation, priority 2005, dated 2010)

Biological target: T1, chimeric human H3 receptor (Homo sapiens, UniProt Q9Y5N1, E19D)
T1 construct: made in house; host or cells: Sf9 insect cells (baculovirus infection); P2 membrane preparation
Experiment: Chimeric human H3 receptor screening GTP binding assay (inhibition of histamine-stimulated GTP-gamma35S binding, Example 8)
Type: biochemical
Settings: 1 h; Table II "Ki", symbol "+": assay described in Example 8; read-out: percent inhibition of agonist-induced GTP-gammaS binding to H3
Procedure, shortened: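 Data are percent inhibition of the 1 μM histamine-stimulated GTP-gamma35S (125 pM) binding, after non-specific binding (10 uM GTP-gammaS) is subtracted. Test compound at 4 μM. Incubation was 60 min at room temperature with Sf9 membranes bearing receptor plus G-protein subunits, buffer pH 7.4 with 10 μM GDP, and filtration read-out.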

T1 sequence (Q9Y5N1 with tags, fused parts or gaps E19D): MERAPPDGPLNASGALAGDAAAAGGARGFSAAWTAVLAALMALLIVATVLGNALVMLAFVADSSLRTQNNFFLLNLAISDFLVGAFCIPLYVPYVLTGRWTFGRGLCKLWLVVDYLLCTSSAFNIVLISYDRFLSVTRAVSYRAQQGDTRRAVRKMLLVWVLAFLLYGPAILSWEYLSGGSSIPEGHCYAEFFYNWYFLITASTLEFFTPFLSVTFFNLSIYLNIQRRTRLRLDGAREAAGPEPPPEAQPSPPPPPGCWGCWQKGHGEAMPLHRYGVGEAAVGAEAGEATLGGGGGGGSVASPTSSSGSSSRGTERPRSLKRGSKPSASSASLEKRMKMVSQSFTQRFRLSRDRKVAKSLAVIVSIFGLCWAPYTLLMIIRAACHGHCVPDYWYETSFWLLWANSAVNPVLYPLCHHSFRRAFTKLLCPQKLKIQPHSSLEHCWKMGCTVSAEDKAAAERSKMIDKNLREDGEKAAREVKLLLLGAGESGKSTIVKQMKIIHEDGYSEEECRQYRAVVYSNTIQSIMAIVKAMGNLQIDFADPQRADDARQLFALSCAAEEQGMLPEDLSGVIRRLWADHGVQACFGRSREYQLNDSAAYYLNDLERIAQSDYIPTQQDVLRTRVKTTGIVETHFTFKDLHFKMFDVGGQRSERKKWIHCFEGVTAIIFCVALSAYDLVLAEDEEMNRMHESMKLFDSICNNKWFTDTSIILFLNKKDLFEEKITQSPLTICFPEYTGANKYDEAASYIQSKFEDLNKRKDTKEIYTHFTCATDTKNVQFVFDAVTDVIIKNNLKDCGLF

Row | SMILES | inhibition at 4 µM
1 | CCCc1ccc(C(=O)N2CCN(CC(=O)N3CCN(C4CCC4)CC3)CC2)cc1 [Compound 790, 1-cyclobutyl-4-{[4-(4-propylbenzoyl)piperazin-1-yl]acetyl}piperazine] | > 90%
2 | O=C(COc1ccccc1)N1CCN(CC(=O)N2CCN(C3CCC3)CC2)CC1 [Compound 797, 1-cyclobutyl-4-{[4-(phenoxyacetyl)piperazin-1-yl]acetyl}piperazine] | > 90%
3 | O=C(Cc1ccccc1)N1CCN(CC(=O)N2CCN(C3CCC3)CC2)CC1 [Compound 798, 1-cyclobutyl-4-{[4-(phenylacetyl)piperazin-1-yl]acetyl}piperazine] | > 90%
4 | O=C(CN1CCN(C(=O)c2ccccn2)CC1)N1CCN(C2CCC2)CC1 [Compound 799, 1-cyclobutyl-4-{[4-(pyridin-2-ylcarbonyl)piperazin-1-yl]acetyl}piperazine] | > 90%
5 | CCC(C)N1CCN(C(=O)CN2CCN(C(=O)C3CCCO3)CC2)CC1 (centres unmarked) [Compound 886, 1-sec-butyl-4-{[4-(tetrahydrofuran-2-ylcarbonyl)piperazin-1-yl]acetyl}piperazine] | > 90%
6 | Cn1c(C(=O)N2CCN(CC(=O)N3CCN(C4CCC4)CC3)CC2)cc2ccccc21 [Compound 887, 2-({4-[2-(4-cyclobutylpiperazin-1-yl)-2-oxoethyl]piperazin-1-yl}carbonyl)-1-methyl-1H-indole] | > 90%
7 | CNc1ccccc1C(=O)N1CCN(CC(=O)N2CCN(C3CCC3)CC2)CC1 [Compound 891, 2-({4-[2-(4-cyclobutylpiperazin-1-yl)-2-oxoethyl]piperazin-1-yl}carbonyl)-N-methylaniline] | > 90%
8 | Cc1cccc(C(=O)N2CCN(CC(=O)N3CCN(C4CCC4)CC3)CC2)c1N [Compound 892, 2-({4-[2-(4-cyclobutylpiperazin-1-yl)-2-oxoethyl]piperazin-1-yl}carbonyl)-6-methylaniline] | > 90%

Second part, the compound after the results:

Row | inhibition at 4 µM | SMILES
9 | > 90% | O=C(CN1CCN(C(=O)C(c2ccccc2)c2ccccc2)CC1)N1CCN(C2CCC2)CC1 [Compound 794, 1-cyclobutyl-4-{[4-(diphenylacetyl)piperazin-1-yl]acetyl}piperazine]
10 | > 90% | O=C(CN1CCN(C(=O)c2ccno2)CC1)N1CCN(C2CCC2)CC1 [Compound 795, 1-cyclobutyl-4-{[4-(isoxazol-5-ylcarbonyl)piperazin-1-yl]acetyl}piperazine]
11 | > 90% | Cc1cc(C)c(C(=O)N2CCN(CC(=O)N3CCN(C4CCC4)CC3)CC2)c(C)c1 [Compound 796, 1-cyclobutyl-4-{[4-(mesitylcarbonyl)piperazin-1-yl]acetyl}piperazine]
12 | > 90% | O=C(CN1CCN(C(=O)c2cccnc2)CC1)N1CCN(C2CCC2)CC1 [Compound 800, 1-cyclobutyl-4-{[4-(pyridin-3-ylcarbonyl)piperazin-1-yl]acetyl}piperazine]
13 | > 90% | CCn1c(C(=O)N2CCN(CC(=O)N3CCN(C4CCC4)CC3)CC2)cc2ccccc21 [Compound 888, 2-({4-[2-(4-cyclobutylpiperazin-1-yl)-2-oxoethyl]piperazin-1-yl}carbonyl)-1-ethyl-1H-indole]
14 | > 90% | CCCn1c(C(=O)N2CCN(CC(=O)N3CCN(C4CCC4)CC3)CC2)cc2ccccc21 [Compound 889, 2-({4-[2-(4-cyclobutylpiperazin-1-yl)-2-oxoethyl]piperazin-1-yl}carbonyl)-1-propyl-1H-indole]
15 | > 90% | Nc1ccccc1C(=O)N1CCN(CC(=O)N2CCN(C3CCC3)CC2)CC1 [Compound 890, 2-({4-[2-(4-cyclobutylpiperazin-1-yl)-2-oxoethyl]piperazin-1-yl}carbonyl)aniline]
16 | > 90% | Cc1ccc(N)c(C(=O)N2CCN(CC(=O)N3CCN(C4CCC4)CC3)CC2)c1 [Compound 893, 2-({4-[2-(4-cyclobutylpiperazin-1-yl)-2-oxoethyl]piperazin-1-yl}carbonyl)-4-methylaniline]
17 | > 90% | Cc1cnc(C(=O)N2CCN(CC(=O)N3CCN(C4CCC4)CC3)CC2)cn1 [Compound 894, 2-({4-[2-(4-cyclobutylpiperazin-1-yl)-2-oxoethyl]piperazin-1-yl}carbonyl)-5-methylpyrazine]
18 | > 90% | COc1cc(C(=O)N2CCN(CC(=O)N3CCN(C4CCC4)CC3)CC2)nc2ccccc12 [Compound 895, 2-({4-[2-(4-cyclobutylpiperazin-1-yl)-2-oxoethyl]piperazin-1-yl}carbonyl)-4-methoxyquinoline]

Same assay, conditions: 1 h; Table II; assay of Example 8; "+" in Ki; read-out: percent inhibition of agonist-induced GTP-gammaS binding to H3

Row | SMILES | inhibition at 4 µM
19 | O=C(CN1CCN(C(=O)c2cc(-c3ccccc3)nc3ccccc23)CC1)N1CCN(C2CCC2)CC1 [Compound 1089] | > 90%
20 | O=C(CN1CCN(C(=O)c2c(-c3ccccc3)nnc3ccccc23)CC1)N1CCN(C2CCC2)CC1 [Compound 1090] | > 90%

Next, values leading:

Row | inhibition at 4 µM | SMILES
21 | > 90% | O=C(CN1CCN(C(=O)c2cnc3ccccc3c2)CC1)N1CCN(C2CCC2)CC1 [Compound 985, 3-({4-[2-(4-cyclobutylpiperazin-1-yl)-2-oxoethyl]piperazin-1-yl}carbonyl)quinoline]
22 | > 90% | CNc1ccc(C(=O)N2CCN(CC(=O)N3CCN(C4CCC4)CC3)CC2)cc1 [Compound 1088]

Same assay, conditions: 1 h; assay of Example 8; "+" in Ki of Table II; read-out: percent inhibition of agonist-induced GTP-gammaS binding to H3

Row | SMILES | inhibition at 4 µM
23 | Cc1ccc(C(=O)N2CCN(CC(=O)N3CCN(C4CCC4)CC3)CC2)cc1N [Compound 1153, 5-({4-[2-(4-cyclobutylpiperazin-1-yl)-2-oxoethyl]piperazin-1-yl}carbonyl)-2-methylaniline] | > 90%
24 | Nc1cc(Cl)ccc1C(=O)N1CCN(CC(=O)N2CCN(C3CCC3)CC2)CC1 [Compound 1163, 5-chloro-2-({4-[2-(4-cyclobutylpiperazin-1-yl)-2-oxoethyl]piperazin-1-yl}carbonyl)aniline] | > 90%

Other lines, results leading:

Row | inhibition at 4 µM | SMILES
25 | > 90% | Nc1ccc(Cl)cc1C(=O)N1CCN(CC(=O)N2CCN(C3CCC3)CC2)CC1 [Compound 1151, 4-chloro-2-({4-[2-(4-cyclobutylpiperazin-1-yl)-2-oxoethyl]piperazin-1-yl}carbonyl)aniline]
26 | > 90% | CSc1ncc(Cl)c(C(=O)N2CCN(CC(=O)N3CCN(C4CCC4)CC3)CC2)n1 [Compound 1164, 5-chloro-4-({4-[2-(4-cyclobutylpiperazin-1-yl)-2-oxoethyl]piperazin-1-yl}carbonyl)-2-(methylthio)pyrimidine]
